Patent publication US20170009266A1, “PROCESS FOR THE ATTACHMENT OF A GALNAC MOIETY COMPRISING A (HETERO)ARYL GROUP TO A GLCNAC MOIETY, AND PRODUCT OBTAINED THEREBY” (SYNAFFIX B.V., priority 2014, published 2017)

Target: T1, Gal-T1(Y289L,C342T) (Bos taurus, UniProt P08037, C342T/Y289L)
T1 construct: host or cells: E. coli
T1 sequence (P08037 130-402 V158I/P187L/I205M/L206V/Y289L/C342T): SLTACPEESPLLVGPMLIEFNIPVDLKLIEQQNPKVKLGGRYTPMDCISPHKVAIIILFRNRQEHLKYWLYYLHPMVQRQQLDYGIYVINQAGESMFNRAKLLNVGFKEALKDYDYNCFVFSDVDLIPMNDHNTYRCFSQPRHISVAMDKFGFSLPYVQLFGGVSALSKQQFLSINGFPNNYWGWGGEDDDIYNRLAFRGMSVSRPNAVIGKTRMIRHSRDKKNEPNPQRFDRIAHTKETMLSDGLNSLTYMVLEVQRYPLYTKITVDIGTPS
Assay: Glycosyltransfer of UDP-galactosamine derivatives to trimmed antibody with Gal-T1(Y289L,C342T), mass spectral analysis
Type: biochemical, bovine
Description: A solution of 20 μg (modified) IgG was incubated for 1 hour at 37° C. with Fabricator™ (commercially available from Genovis, Lund, Sweden) (1.25 U/μL) in phosphate-buffered saline (PBS) pH 6.6 in a total volume of 10 μL. Fabricator™-digested samples were washed trice with milliQ using an Amicon Ultra-0.5, Ultracel-10 Membrane (Millipore) resulting in a final sample volume of approximately 40 μL. The Fc/2 fragment was analyzed by electrospray ionization time-of-flight (ESI-TOF) on a JEOL AccuTOF. Deconvoluted spectra were obtained using Magtran software.
Trimmed trastuzumab (10 mg/mL, 3.3 nmol), obtained by Endo S treatment of trastuzumab, was incubated with nicotinic acid variant of UDP-galactosamine (21, 2 mM) and Gal-T1(Y289L,C342T) (0.5 mg/mL, 3 μL/4 mg/ml) in 10 mM MnCl2 and 25 mM Tris-HCl pH 7.5 at 30° C. overnight. Mass spectral analysis of the sample after treatment with Fabricator™ (commercially available from Genovis) indicated the formation of the correct structure of CH2-CH3 fragment of 28 (24404 Da, expected mass 24405 Da, approximately 35% conversion), resulting from galactosamide nicotinic acid transfer to core GlcNAc(Fuc) substituted trastuzumab heavy chain.
A pET22b vector containing the sequence encoding residues 130-402 of bovine Gal-T1 with the Y289L and C342T mutations between the NdeI-BamHI sites was obtained from Genscript. Using this plasmid Gal-T1(Y289L,C342T) was expressed, isolated and refolded from inclusion bodies according to the reported procedure by Qasba et al. (Prot. Expr. Pur. 2003, 30, 219-76229, incorporated by reference herein). After refolding, the solution was dialyzed against 20 mM Tris pH 7.5 and the insoluble protein was removed by centrifugation (10 minutes 10.000 g). The soluble Gal-T1(Y289L,C342T), represented by SEQ ID NO: 25, was purified and concentrated using a cation exchange column (Source 15S HR16/10 column, GE Healthcare). After elution with 20 mM Tris-HCl pH 7.5, 1 M NaCl, the protein was dialyzed against 20 mM Tris-HCl pH 7.5. This procedure yielded 90 mg inclusion bodies from 0.5 L culture, which after refolding gave 3.9 mg active soluble protein.
Trimmed trastuzumab (10 mg/mL, 66 μM), obtained by Endo S treatment of trastuzumab, was incubated with the 4-azido-2,3,5,6-tetrafluorobenzoyl derivative of UDP-galactosamine (23b, 1 mM) and Gal-T1(Y289L,C342T) (1.0 mg/mL) in 10 mM MnCl2 and 25 mM Tris-HCl pH 8.0 at 30° C. overnight. Mass spectral analysis of the Fabricator™-digested sample indicated a partial conversion of core GlcNac(Fuc)-substituted trastuzumab (observed mass 24139 Da, calculated mass of 24136 Da) into the product 30b (observed mass 24518 Da, calculated mass of 24514 Da, approximately 10% of total Fc/2 fragment), resulting from transfer of 23b to core GlcNAc(Fuc)-substituted trastuzumab.
Trimmed cetuximab (5 mg/mL, 33 μM), obtained by Endo S treatment of cetuximab, was incubated with the 4-azido-2,3,5,6-tetrafluorobenzoyl derivative of UDP-galactosamine (23b, 2 mM) and Gal-T1(Y289L,C342T) (1.0 mg/mL) in 25 mM Tris-HCL pH 7.5 and 150 mM NaCl at 30° C. overnight. Mass spectral analysis of the Fabricator™-digested sample indicated a partial conversion of the core GlcNac(Fuc)-substituted adalimumab (observed mass 24138 Da, calculated mass of 24136 Da) into product 30b (observed mass 24518 Da, calculated mass of 24514 Da, approximately 20% of total Fc/2 fragment), resulting from transfer of 23b to core GlcNAc(Fuc)-substituted adalimumab.
Trimmed bevacizumab (5 mg/mL, 33 μM), obtained by Endo S treatment of bevacizumab, was incubated with the 4-azido-2,3,5,6-tetrafluorobenzoyl derivative of UDP-galactosamine (23b, 2 mM) and Gal-T1(Y289L,C342T) (1.0 mg/mL) in 25 mM Tris-HCL pH 7.5 and 150 mM NaCl at 30° C. overnight. […]

[N-]=[N+]=Nc1ccc(C(=O)NC2C(OP(=O)(O)OP(=O)(O)OCC3OC(n4ccc(=O)[nH]c4=O)C(O)C3O)OC(CO)C(O)C2O)cn1 (stereo not shown) [Compound 21b, 6-azidonicotinic Acid Derivative of UDP-GalNH2]
product, % of total Fc/2 fragment (trimmed trastuzumab 10 mg/mL, UDP derivative 5 mM, enzyme 1.0 mg/mL, pH 7.5, 30° C. overnight): approximately 95%

O=C(NC1C(OP(=O)(O)OP(=O)(O)OCC2OC(n3ccc(=O)[nH]c3=O)C(O)C2O)OC(CO)C(O)C1O)c1cccnc1 (stereo not shown) [Compound 21, 3-pyridylcarbonyl Derivative of UDP-GalNH2]
conversion (trimmed trastuzumab 10 mg/mL, UDP derivative 2 mM, enzyme 0.5 mg/mL (E. coli), pH 7.5, 30° C. overnight, Fabricator-digested): approximately 35%

[N-]=[N+]=Nc1c(F)c(F)c(C(=O)N[C@H]2[C@@H](OP(=O)(O)OP(=O)(O)OC[C@H]3O[C@@H](n4ccc(=O)[nH]c4=O)[C@H](O)[C@@H]3O)O[C@H](CO)[C@H](O)[C@@H]2O)c(F)c1F [Compound 23b, 4-azido-2,3,5,6-tetrafluorobenzoyl Derivative of UDP-GalNH2]
product, % of total Fc/2 fragment (trimmed adalimumab 5 mg/mL, UDP derivative 2 mM, enzyme 1.0 mg/mL, pH 7.5, 30° C. overnight): approximately 30%
product, % of total Fc/2 fragment (trimmed bevacizumab 5 mg/mL, UDP derivative 2 mM, enzyme 1.0 mg/mL, pH 7.5, 30° C. overnight): approximately 30%
product, % of total Fc/2 fragment (trimmed cetuximab 5 mg/mL, UDP derivative 2 mM, enzyme 1.0 mg/mL, pH 7.5, 30° C. overnight): approximately 20%
product, % of total Fc/2 fragment (trimmed trastuzumab 10 mg/mL, UDP derivative 1 mM, enzyme 1.0 mg/mL, pH 8.0, 30° C. overnight): approximately 10%

[N-]=[N+]=Nc1c(F)cc(C(=O)N[C@H]2[C@@H](OP(=O)(O)OP(=O)(O)OC[C@H]3O[C@@H](n4ccc(=O)[nH]c4=O)[C@H](O)[C@@H]3O)O[C@H](CO)[C@H](O)[C@@H]2O)cc1F [Compound 23, 4-azido-3,5-difluorobenzoyl Derivative of UDP-GalNH2]
conversion of core GlcNAc(Fuc)-substituted trastuzumab into product (trimmed trastuzumab 10 mg/mL, UDP derivative 1 mM, enzyme 1.0 mg/mL, pH 8.0, 30° C. overnight, reduced sample): complete conversion
